Patent publication USRE40594E1, “Inhibitors of the bitter taste response” (Mount Sinai School of Medicine of New York University, priority 1998, dated 2008)
“Also recorded” adds a separate entry of the source.

Experiments:
[1] = test system: glossopharyngeal nerve responses of C57BL/6J mice; assay: Glossopharyngeal nerve recording on lingual stimulation with tastants; format: in vivo
Procedure: Nerve Recording. Glossopharyngeal nerve responses were recorded from male C57BL/6J mice as previously described (Ninomiya, Y., et al., 1997, Am. J. Physiol. (London) 272:R1002-RI006). Each mouse was anesthetized with intraperitoneal injection of sodium pentobarbital (40-50 mg/kg) and maintained at a surgical level of anesthesis with supplemental injections of the drug. The trachea was cannulated, and the mouse was then fixed in the supine position with a head holder to allow dissection of the glossopharyngeal nerve. The hypoglossal nerve was transected bilaterally to prevent inadvertent tongue movements. The right glossopharyngeal nerve was exposed by removal of the digastric muscle and posterior horn of the hyoid bone. The glossopharyngeal nerve was then dissected free from underlying tissues and cut near its entrance to the posterior foramen lacerum. The entire nerve was placed on a silver wire electrode for whole nerve recording. An indifferent electrode was positioned nearby in the wound. […] Whole nerve responses were integrated by using an RMS-DC converter (Hendrick, Tallahassee, Fla.) with a time constant of 0.5 s. For chemical stimulation of the circumvallate and foliate papillae, an incision was made on each side of the animal's face from the comer of the mouth to just above the angle of the jaw, the papillae were exposed, and their trenches opened via slight tension applied through a small suture sewn in the tip of the tongue. Tastant solutions were delivered to the tongue by gravity flow, and flowed over the tongue for a controlled period. The stability of each preparation was monitored by the periodic application of 0.1 M NH4Cl. A recording was considered to be stable when the 0.1 M NH4Cl response magnitudes at the beginning and end of each stimulation series deviated by no more than 15%. Only responses from stable recordings were used in the data analysis. In the analysis of whole nerve responses, the magnitudes of the integrated response at 20, 25, 30, 35. and 40 s after stimulus onset were measured and averaged to generate tonic responses: the tonic response represents the sustained nerve response to continuous tastant stimulation of taste receptor cells. The relative tonic response for each stimulus was obtained by normalization to the response from 0.1 M NH4Cl (the tonic response of NH4Cl was defined as 1.0). Student's t test was used for statistical analysis.

[2] = test system: bovine taste receptor cell membranes (taste receptors) with transducin; assay: G protein activation assay (trypsin sensitivity): activation of transducin by bitter tastant plus taste membranes; format: biochemical, Bovine (Bos primigenius)
From the text: Taste receptor is contacted with gustducin or transducin and tastant, in the presence or absence of test inhibitor, under conditions suitable for activation of the G-protein present. […] In specific non-limiting embodiments, a subunits of transducin or gustducin may be combined with βγ subunits prior to this step, as set forth above. To the reaction mixture comprising taste receptors and gustducin or transducin, test inhibitor and/or bitter tastant may be added, and the resulting solution incubated to permit interaction of the elements.
In preferred embodiments, activation is assessed by a trypsin digestion assay. […] In a specific, non-limiting example, to perform a trypsin digestion assay according to the invention, TPCK-treated trypsin (1:25 trypsin to total protein in the reaction mixture) may be added, and the digestion may be performed at room temperature for about 15 minutes and stopped by adding soybean trypsin inhibitor (6:1 mol/mol inhibitor to trypsin). […] The separated polypeptides may then be transferred by electro-blotter to a poly (vinylidene difluoride) membrane blocked by the addition of 5% BLOTTO [50 mM Tris-HCI, pH 7.4/100 mM NaCl/5% nonfat dry milk], (30 min). G-protein peptides may then be visualized by binding of antibody directed toward transducin or gustducin, followed, for example, by binding of a detectably labeled secondary antibody. If a horseradish peroxidase-labeled secondary antibody is used, binding may be visualized by developing with bicinchoninic acid staining reagents and exposure to x-ray film.
G Protein Activation Assays. Bovine (Bos primigenius) tongues were collected fresh from a local slaughterhouse and transported on ice to the laboratory. Circumvallate papillae were hand dissected, frozen in liquid nitrogen, and stored at −80° C. until use. […] The pelleted membranes were rinsed twice, resuspended in homogenization buffer lacking protease inhibitors, and further homogenized by 20 passages through a 25-gauge needle. Aliquots were either flash frozen or stored on ice until use. […] The separated polypeptides were transferred by electro-blotter to a poly (vinylidene difluoride) membrane, which was blocked by the addition of 5% BLOTTO [50 mM Tris-HCI, pH 7.4/100 mM NaCl/5% nonfat dry milk], (30 min), then transducin peptides were visualized by binding of transducin antiserum and horseradish peroxidase-labeled goat anti-rabbit secondary antibody, followed by developing with bicinchoninic acid staining reagents from Bio-Rad and exposure to x-ray film.
Chemicals. All bitter tastant and buffer chemicals were of the highest purity available and were purchased either from Sigma or Boehringer Mannheim, unless otherwise noted. […] The rabbit polyclonal antitransducin antibody was a kind gift of Mel Simon and John Watson (California Institute of Technology, Pasadena, Calif.).

## Nc1ncnc2c1ncn2[C@@H]1O[C@H](COP(=O)(O)O)[C@@H](O)[C@H]1O [AMP, adenosine 5′ monophosphate]
[1]; 1.0 mM ATR, inhibitor 0.1 mM, FIGS. 4A-C
  inhibition of glossopharyngeal nerve responses to atropine: significantly inhibited
[1]; 1.0 mM SPA, inhibitor 0.1 mM, FIGS. 4A-C, 4I (P<0.001)
  inhibition of glossopharyngeal nerve responses to sparteine: inhibits; also recorded: significantly inhibited
[1]; 1.0 mM STR, inhibitor 0.1 mM, FIGS. 4A-C
  inhibition of glossopharyngeal nerve responses to strychnine: significantly inhibited
[1]; 3.0 mM SC45647, 0.1 mM AMP, P<0.01, FIG. 4I
  effect on glossopharyngeal nerve responses to SC45647: inhibits; also recorded: inhibited slightly; also recorded: did diminish
[1]; 5.0 mM DEN, inhibitor 0.1 mM, FIGS. 4A-C
  inhibition of glossopharyngeal nerve responses to DEN: significantly inhibited
[1]; 5.0 mM HCl, 0.1 mM AMP, FIG. 4I
  effect on glossopharyngeal nerve responses to HCl: did not affect
[1]; 0.1 M NH4Cl, 0.1 mM AMP
  effect on glossopharyngeal nerve responses to NH4Cl: did not affect
[1]; 0.1 M NaCl, 0.1 mM AMP, FIG. 4I
  effect on glossopharyngeal nerve responses to NaCl: did not affect
[1]; 0.5 M sucrose, 0.1 mM AMP, FIG. 4I
  effect on glossopharyngeal nerve responses to sucrose: did not affect
[1]; DEN 0.1, 0.5, 1.0, 5.0, 10.0 mM, AMP 0.1 and 1.0 mM, n=5 to 7, FIG. 4G
  inhibition of relative tonic glossopharyngeal responses to rising DEN concentrations: significantly inhibited
[1]; DEN, QUI and other bitter compounds
  inhibition of gustatory (glossopharyngeal) nerve responses to bitter compounds, summary statement: diminishes
[1]; QUI 0.1, 0.3, 1.0 mM, AMP 0.1 and 1.0 mM, n=6 to 8, FIG. 4H
  inhibition of relative tonic glossopharyngeal responses to rising QUI concentrations: significantly inhibited; also recorded: reached a plateau
[1]; QUI 0.1 and 1.0 mM, inhibitor 0.1 mM, FIGS. 4D-F
  inhibition of glossopharyngeal nerve responses to QUI: significantly inhibited
[2]; 1.0 mM QUI, AMP 0.01-2.5 mM, FIG. 1B
  inhibition of activation of transducin by QUI plus bovine taste membranes: inhibit; also recorded: inhibited in a dose-dependent fashion
[2]; AMP 2.5 mM, ATR 5.0 mM, FIG. 1C
  inhibition of taste membrane-dependent activation of transducin by atropine hydrochloride: inhibits; also recorded: inhibitory effect
[2]; AMP 2.5 mM, DEN 5.0 mM, FIG. 1C
  inhibition of taste membrane-dependent activation of transducin by DEN: inhibits; also recorded: inhibitory effect
[2]; AMP 2.5 mM, NIC 5.0 mM, FIG. 1C
  inhibition of taste membrane-dependent activation of transducin by nicotine hemisulfate: inhibits; also recorded: inhibitory effect
[2]; AMP 2.5 mM, QUI 1.0 mM, FIG. 1C
  inhibition of taste membrane-dependent activation of transducin by QUI: inhibits; also recorded: inhibitory effect
[2]; AMP 2.5 mM, STR 5.0 mM, FIG. 1C
  inhibition of taste membrane-dependent activation of transducin by strychnine hydrochloride: inhibits; also recorded: inhibitory effect
[2]; DEN, QUI and other bitter compounds, concentrations not given
  inhibition of in vitro activation of transducin (G-protein) by taste membranes plus bitter compounds, summary statement: inhibits
[2]; concentrations not given
  inhibition of taste membrane activation of transducin by caffeic acid: inhibitory effect
  inhibition of taste membrane activation of transducin by naringin: inhibitory effect
  inhibition of taste membrane activation of transducin by quinacrine: inhibitory effect
  inhibition of taste membrane activation of transducin by sparteine: inhibitory effect
[2]; inhibitor 0.25, 0.5, 1.25, 2.5, 5.0 mM, DEN 5.0 mM, shift from 32-kDa to 23-kDa fragments, FIG. 1A/1E
  inhibition of activation of transducin by DEN plus bovine taste receptor membranes: inhibit; also recorded: inhibited in a dose-dependent fashion
